Laboratory results: patent US20220339214A1, “KIRIN FRUIT FERMENTATION AND METHODS FOR IMPROVING METABOLISM BY USING THE SAME” (TCI CO., LTD., priority 2021, published 2022)

Legend:
mouse myoblasts C2C12 [1] = assay: Proliferation of skeletal muscle cells (Click-iT Plus EdU, flow cytometry); format: cell-based; details: 24 h
Text: Experimental cell strain: mouse myoblasts C2C12 (hereinafter referred to as C2C12 cells) of the C2C12 cell strain (ATCC CRL-1772™) purchased from the American Type Culture Collection (ATCC®).
Culture medium: Dulbecco's modified Eagle's medium, purchased from Gibco, US, Gat.11965-092. 10% of fetal bovine serum (FBS), purchased from Gibco, US, Gat.10437-028. 1% of antibiotic, purchased from Gibco, US, Gat.15240-062.
Reagents: 10×DPBS buffer (purchased from Gibco, Gat 14200-075), trypan blue dead cell dye (purchased from Lonza, Cat 17-942E), trypsin-EDTA (purchased from Gibco, Cat. 15400-054), and cell proliferation Click-iT™ Plus EdU kit (Invitrogen; Cat. C10632).
First, 1×10^5 cells were inoculated into each well of a 6-well culture plate to culture at 37° C. for 24 h. The cultured cells were divided into three groups: an experimental group, a blank group, and a control group.
Blank group: only a culture medium was added to culture at 37° C. for 24 h.
Control group: 10% of PBS was added to culture at 37° C. for 24 h, which was used as a positive control group. […]
Next, the specific reagent EdU from the cell proliferation kit was added to culture for 2 h. […] Finally, the fluorescence signal of the to-be-tested cell solution in each well was measured by the flow cytometry (under 488 nm of excitation light and 530/30 nm of scattered light), and the quantity of cells was calculated. […]

mouse myoblasts C2C12 [2] = assay: Activity of mitochondria in skeletal muscle cells affected by active substances (fluorescence picture); format: cell-based; details: 100 nM, 24 h, compared with blank group
Experimental: The experimental medium was removed from the culture plate, and the culture plate was washed with 1 mL of 1×PBS for two times. […] was added into each well to react for 5 min in the dark. After the reaction was completed, a cell medium was added to stop the reaction. The cells and cell medium in each well were collected in a 1.5 mL centrifuge tube, and the centrifuge tube containing the cells and cell medium was centrifuged at 400×g for 5 min. After the centrifugation, a supernatant was removed. The cells were washed with 1×DPBS, and then the centrifuge tube containing the cells was centrifuged again at 400×g for 5 min. After the centrifugation again, a supernatant was removed from each centrifuge tube, and 100 μL of JC-1 dye was added into each centrifuge tube and left to stand for 15 min in the dark. After 15 min, each centrifuge tube was centrifuged at 400×g for 5 min. […] Finally, the fluorescence signal of the to-be-tested cell solution in each well was measured by the flow cytometry (excitation light: 488 nip and scattered light: 527 nm & 590 nm), and the membrane potential of mitochondria was calculated, to analyze the activity of mitochondria. […] Finally, a picture of the fluorescence signal of the to-be-tested cell solution was taken by a. camera to observe the activity of mitochondria.

## O[C@H]1[C@H](O)[C@@H](O)[C@H](O)[C@@H](O)[C@H]1O [TCI-GHU-01, myo-inositol]
Mouse myoblasts C2C12 [1]; 100 nM, vs blank group
  increase of quantity of skeletal muscle cells: 48.2%
Mouse myoblasts C2C12 [1]; TCI-GHU-01 100 nM, positive control 10%, blank group regarded as 100%
  quantity of skeletal muscle cells relative to the blank group: 148.2%
Mouse myoblasts C2C12 [2]
  activity of mitochondria in skeletal muscle cells (small light spots around the nuclei): higher than that of the blank group
